In ChEMBL document CHEMBL1201862, “PubChem BioAssay data set” (2004):
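Interpolation was linear, between the two tested concentrations surrounding the appropriate level; five concentrations were tested over 48 hours in 96-well plates. GI50 marks 50% less growth.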 Active and inactive are the calls of the source. Rule as the data show it: active = GI50 up to about 1.1 µM and inactive = higher.

Key:
Assay in all cases: inhibition of tumour cell growth, NCI panel, 48 h
786-0 = test system: 786-0
A498 = test system: A498
A549 = test system: A549
ACHN = test system: ACHN
CAKI-1 = test system: CAKI-1
CCRF-CEM = test system: CCRF-CEM
COLO 205 = test system: COLO 205
DLD-1 = test system: DLD-1
DMS-114 = test system: DMS-114
DMS-273 = test system: DMS-273
EKVX = test system: EKVX
HCC 2998 = test system: HCC 2998
HCT-116 = test system: HCT-116
HCT-15 = test system: HCT-15
HL-60 = test system: HL-60
HOP-18 = test system: HOP-18
HOP-62 = test system: HOP-62
HOP-92 = test system: HOP-92
HT-29 = test system: HT-29
IGROV-1 = test system: IGROV-1
K562 = test system: K562
KM-20L2 = test system: KM-20L2
KM12 = test system: KM12
LOX IMVI = test system: LOX IMVI
LXFL 529 = test system: LXFL 529
M14 = test system: M14
M19-MEL = test system: M19-MEL
MOLT-4 = test system: MOLT-4
Malme-3M = test system: Malme-3M
NCI-H226 = test system: NCI-H226
NCI-H23 = test system: NCI-H23
NCI-H460 = test system: NCI-H460
NCI-H522 = test system: NCI-H522
OVCAR-3 = test system: OVCAR-3
OVCAR-4 = test system: OVCAR-4
OVCAR-5 = test system: OVCAR-5
OVCAR-8 = test system: OVCAR-8
RPMI-8226 = test system: RPMI-8226
SF-268 = test system: SF-268
SF-295 = test system: SF-295
SF-539 = test system: SF-539
SK-MEL-28 = test system: SK-MEL-28
SK-MEL-2 = test system: SK-MEL-2
SK-MEL-5 = test system: SK-MEL-5
SK-OV-3 = test system: SK-OV-3
SN12C = test system: SN12C
SNB-19 = test system: SNB-19
SNB-75 = test system: SNB-75
SNB-78 = test system: SNB-78
SR = test system: SR
SW-620 = test system: SW-620
TK-10 = test system: TK-10
U-251 = test system: U-251
UACC-257 = test system: UACC-257
UACC-62 = test system: UACC-62
UO-31 = test system: UO-31
XF498 = test system: XF498

CC(C)N(C(=O)C12C3C4C5C3C1(C#N)C5C42)C(C)C (configuration not stated)
GI50 (786-0): > 100 µM (inactive)
GI50 (A498): > 100 µM (inactive)
GI50 (A549): > 100 µM (inactive)
GI50 (ACHN): > 100 µM (inactive)
GI50 (CAKI-1): > 100 µM (inactive)
GI50 (CCRF-CEM): > 100 µM (inactive)
GI50 (COLO 205): > 100 µM (inactive)
GI50 (DLD-1): > 100 µM (inactive)
GI50 (DMS-114): > 100 µM (inactive)
GI50 (DMS-273): > 100 µM (inactive)
GI50 (EKVX): > 100 µM (inactive)
GI50 (HCC 2998): > 100 µM (inactive)
GI50 (HCT-116): > 100 µM (inactive)
GI50 (HCT-15): > 100 µM
GI50 (HL-60): > 100 µM (inactive)
GI50 (HOP-18): > 100 µM (inactive)
GI50 (HOP-62): > 100 µM (inactive)
GI50 (HOP-92): > 100 µM (inactive)
GI50 (HT-29): > 100 µM (inactive)
GI50 (IGROV-1): > 100 µM (inactive)
GI50 (K562): > 100 µM (inactive)
GI50 (KM-20L2): > 100 µM (inactive)
GI50 (KM12): > 100 µM (inactive)
GI50 (LOX IMVI): 35.3 µM (inactive)
GI50 (LXFL 529): > 100 µM (inactive)
GI50 (M14): > 100 µM (inactive)
GI50 (M19-MEL): > 100 µM (inactive)
GI50 (MOLT-4): > 100 µM (inactive)
GI50 (Malme-3M): > 100 µM (inactive)
GI50 (NCI-H226): > 100 µM (inactive)
GI50 (NCI-H23): > 100 µM (inactive)
GI50 (NCI-H460): > 100 µM (inactive)
GI50 (NCI-H522): > 100 µM (inactive)
GI50 (OVCAR-3): > 100 µM (inactive)
GI50 (OVCAR-4): > 100 µM (inactive)
GI50 (OVCAR-5): > 100 µM (inactive)
GI50 (OVCAR-8): > 100 µM (inactive)
GI50 (RPMI-8226): > 100 µM (inactive)
GI50 (SF-268): > 100 µM (inactive)
GI50 (SF-295): > 100 µM (inactive)
GI50 (SF-539): > 100 µM (inactive)
GI50 (SK-MEL-28): > 100 µM (inactive)
GI50 (SK-MEL-2): > 100 µM (inactive)
GI50 (SK-MEL-5): > 100 µM (inactive)
GI50 (SK-OV-3): > 100 µM (inactive)
GI50 (SN12C): > 100 µM (inactive)
GI50 (SNB-19): > 100 µM (inactive)
GI50 (SNB-75): > 100 µM (inactive)
GI50 (SNB-78): > 100 µM (inactive)
GI50 (SR): > 100 µM (inactive)
GI50 (SW-620): 11.6 µM (inactive)
GI50 (TK-10): > 100 µM (inactive)
GI50 (U-251): > 100 µM (inactive)
GI50 (UACC-257): > 100 µM (inactive)
GI50 (UACC-62): > 100 µM (inactive)
GI50 (UO-31): > 100 µM (inactive)
GI50 (XF498): > 100 µM (inactive)
